Source: patent publication US9446039B2, “Aminoheteroaryl compounds as MTH1 inhibitors” (CEMM—FORSCHUNGSZENTRUM FÜR MOLEKULARE MEDIZIN GMBH, priority 2012, dated 2016)

Tests used:
Type in all cases: binding
[1] = target: T1, SW480 colon carcinoma cells lysate proteins (Homo sapiens, UniProt P29373); settings: PreyGene CRABP2
T1 sequence (P29373 1-138): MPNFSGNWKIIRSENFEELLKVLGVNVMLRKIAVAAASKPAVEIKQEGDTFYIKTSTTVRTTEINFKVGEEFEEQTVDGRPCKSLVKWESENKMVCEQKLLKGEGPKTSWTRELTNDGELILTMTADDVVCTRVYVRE

[2] = target: SW480 colon carcinoma cells lysate proteins (Homo sapiens, UniProt P07858); settings: PreyGene CTSB
[3] = target: SW480 colon carcinoma cells lysate proteins (Homo sapiens, UniProt P68371); settings: PreyGene TUBB4B; SW480 cells
[4] = target: SW480 colon carcinoma cells lysate proteins (Homo sapiens, UniProt Q09666); settings: PreyGene AHNAK; SW480 cells
[5] = target: SW480 colon carcinoma cells lysate proteins (Homo sapiens, UniProt Q92616); settings: PreyGene GCN1L1; SW480 cells
[6] = target: SW480 colon carcinoma cells lysate proteins (Homo sapiens, UniProt Q9Y490); settings: PreyGene TLN1
[7] = target: SW480 colon carcinoma cells lysate proteins (Homo sapiens, UniProt Q14315); settings: PreyGene FLNC; SW480 cells
[8] = target: T2, SW480 colon carcinoma cells lysate proteins (Homo sapiens, UniProt P08758); settings: PreyGene ANXA5
T2 sequence (P08758 1-320): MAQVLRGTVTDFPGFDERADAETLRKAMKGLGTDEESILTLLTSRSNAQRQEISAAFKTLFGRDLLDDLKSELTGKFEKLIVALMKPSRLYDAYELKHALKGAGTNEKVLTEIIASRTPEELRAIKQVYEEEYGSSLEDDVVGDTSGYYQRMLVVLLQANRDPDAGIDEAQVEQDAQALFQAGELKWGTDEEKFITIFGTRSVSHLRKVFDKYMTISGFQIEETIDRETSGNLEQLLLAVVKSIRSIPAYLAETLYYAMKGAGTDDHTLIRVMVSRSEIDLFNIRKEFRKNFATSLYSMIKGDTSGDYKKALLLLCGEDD

[9] = target: SW480 colon carcinoma cells lysate proteins (Homo sapiens, UniProt Q9Y265); settings: PreyGene RUVBL1
[10] = target: T3, SW480 colon carcinoma cells lysate proteins (Homo sapiens, UniProt Q13442); settings: PreyGene PDAP1; SW480 cells
T3 sequence (Q13442 1-181): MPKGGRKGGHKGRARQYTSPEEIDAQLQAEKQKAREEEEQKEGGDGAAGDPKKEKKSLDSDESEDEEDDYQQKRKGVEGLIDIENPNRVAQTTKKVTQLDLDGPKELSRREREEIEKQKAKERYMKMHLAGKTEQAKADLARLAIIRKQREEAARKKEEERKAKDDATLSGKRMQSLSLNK

[11] = target: T4, SW480 colon carcinoma cells lysate proteins (Homo sapiens, UniProt P68104); settings: PreyGene EEF1A1; SW480 cells
T4 sequence (P68104 1-462): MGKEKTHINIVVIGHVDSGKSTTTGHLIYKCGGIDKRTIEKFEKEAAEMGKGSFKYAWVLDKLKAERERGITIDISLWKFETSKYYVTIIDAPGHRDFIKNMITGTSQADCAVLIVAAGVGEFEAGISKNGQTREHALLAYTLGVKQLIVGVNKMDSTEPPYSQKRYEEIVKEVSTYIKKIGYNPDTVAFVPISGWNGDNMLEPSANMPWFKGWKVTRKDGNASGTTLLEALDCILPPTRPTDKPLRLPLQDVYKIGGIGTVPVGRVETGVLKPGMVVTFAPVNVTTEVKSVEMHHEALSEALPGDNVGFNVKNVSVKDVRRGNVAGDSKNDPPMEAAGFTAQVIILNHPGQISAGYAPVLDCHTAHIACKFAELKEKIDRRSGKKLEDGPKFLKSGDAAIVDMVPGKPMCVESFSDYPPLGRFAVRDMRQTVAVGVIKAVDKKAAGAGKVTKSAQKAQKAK

SW480 colon carcinoma cells lysate proteins (Homo sapiens, UniProt P68371), sequence (P68371 whole entry): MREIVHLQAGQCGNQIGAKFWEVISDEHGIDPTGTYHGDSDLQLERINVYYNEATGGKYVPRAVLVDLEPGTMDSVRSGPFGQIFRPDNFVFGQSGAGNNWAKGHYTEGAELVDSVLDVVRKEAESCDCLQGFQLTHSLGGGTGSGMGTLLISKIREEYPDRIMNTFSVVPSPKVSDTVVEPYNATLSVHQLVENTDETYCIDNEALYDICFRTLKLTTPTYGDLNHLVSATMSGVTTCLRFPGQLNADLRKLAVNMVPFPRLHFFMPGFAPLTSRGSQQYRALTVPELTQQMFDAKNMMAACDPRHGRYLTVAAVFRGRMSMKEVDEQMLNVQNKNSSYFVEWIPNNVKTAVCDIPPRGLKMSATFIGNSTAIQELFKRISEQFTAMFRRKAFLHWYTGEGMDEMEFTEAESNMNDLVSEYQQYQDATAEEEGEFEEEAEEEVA
SW480 colon carcinoma cells lysate proteins (Homo sapiens, UniProt Q9Y265), sequence (Q9Y265 whole entry): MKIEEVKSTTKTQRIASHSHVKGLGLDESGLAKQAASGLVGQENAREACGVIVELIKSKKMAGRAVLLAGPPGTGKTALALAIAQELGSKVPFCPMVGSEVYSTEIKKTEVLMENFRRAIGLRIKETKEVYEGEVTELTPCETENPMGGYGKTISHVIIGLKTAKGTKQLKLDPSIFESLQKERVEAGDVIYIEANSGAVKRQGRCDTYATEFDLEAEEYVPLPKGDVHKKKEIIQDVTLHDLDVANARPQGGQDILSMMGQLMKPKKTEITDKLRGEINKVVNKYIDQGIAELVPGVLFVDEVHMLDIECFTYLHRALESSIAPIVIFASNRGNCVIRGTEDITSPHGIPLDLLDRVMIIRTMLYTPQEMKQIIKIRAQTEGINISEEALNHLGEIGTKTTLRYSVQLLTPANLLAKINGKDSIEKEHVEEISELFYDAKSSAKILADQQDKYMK
SW480 colon carcinoma cells lysate proteins (Homo sapiens, UniProt Q14315), sequence (Q14315 whole entry): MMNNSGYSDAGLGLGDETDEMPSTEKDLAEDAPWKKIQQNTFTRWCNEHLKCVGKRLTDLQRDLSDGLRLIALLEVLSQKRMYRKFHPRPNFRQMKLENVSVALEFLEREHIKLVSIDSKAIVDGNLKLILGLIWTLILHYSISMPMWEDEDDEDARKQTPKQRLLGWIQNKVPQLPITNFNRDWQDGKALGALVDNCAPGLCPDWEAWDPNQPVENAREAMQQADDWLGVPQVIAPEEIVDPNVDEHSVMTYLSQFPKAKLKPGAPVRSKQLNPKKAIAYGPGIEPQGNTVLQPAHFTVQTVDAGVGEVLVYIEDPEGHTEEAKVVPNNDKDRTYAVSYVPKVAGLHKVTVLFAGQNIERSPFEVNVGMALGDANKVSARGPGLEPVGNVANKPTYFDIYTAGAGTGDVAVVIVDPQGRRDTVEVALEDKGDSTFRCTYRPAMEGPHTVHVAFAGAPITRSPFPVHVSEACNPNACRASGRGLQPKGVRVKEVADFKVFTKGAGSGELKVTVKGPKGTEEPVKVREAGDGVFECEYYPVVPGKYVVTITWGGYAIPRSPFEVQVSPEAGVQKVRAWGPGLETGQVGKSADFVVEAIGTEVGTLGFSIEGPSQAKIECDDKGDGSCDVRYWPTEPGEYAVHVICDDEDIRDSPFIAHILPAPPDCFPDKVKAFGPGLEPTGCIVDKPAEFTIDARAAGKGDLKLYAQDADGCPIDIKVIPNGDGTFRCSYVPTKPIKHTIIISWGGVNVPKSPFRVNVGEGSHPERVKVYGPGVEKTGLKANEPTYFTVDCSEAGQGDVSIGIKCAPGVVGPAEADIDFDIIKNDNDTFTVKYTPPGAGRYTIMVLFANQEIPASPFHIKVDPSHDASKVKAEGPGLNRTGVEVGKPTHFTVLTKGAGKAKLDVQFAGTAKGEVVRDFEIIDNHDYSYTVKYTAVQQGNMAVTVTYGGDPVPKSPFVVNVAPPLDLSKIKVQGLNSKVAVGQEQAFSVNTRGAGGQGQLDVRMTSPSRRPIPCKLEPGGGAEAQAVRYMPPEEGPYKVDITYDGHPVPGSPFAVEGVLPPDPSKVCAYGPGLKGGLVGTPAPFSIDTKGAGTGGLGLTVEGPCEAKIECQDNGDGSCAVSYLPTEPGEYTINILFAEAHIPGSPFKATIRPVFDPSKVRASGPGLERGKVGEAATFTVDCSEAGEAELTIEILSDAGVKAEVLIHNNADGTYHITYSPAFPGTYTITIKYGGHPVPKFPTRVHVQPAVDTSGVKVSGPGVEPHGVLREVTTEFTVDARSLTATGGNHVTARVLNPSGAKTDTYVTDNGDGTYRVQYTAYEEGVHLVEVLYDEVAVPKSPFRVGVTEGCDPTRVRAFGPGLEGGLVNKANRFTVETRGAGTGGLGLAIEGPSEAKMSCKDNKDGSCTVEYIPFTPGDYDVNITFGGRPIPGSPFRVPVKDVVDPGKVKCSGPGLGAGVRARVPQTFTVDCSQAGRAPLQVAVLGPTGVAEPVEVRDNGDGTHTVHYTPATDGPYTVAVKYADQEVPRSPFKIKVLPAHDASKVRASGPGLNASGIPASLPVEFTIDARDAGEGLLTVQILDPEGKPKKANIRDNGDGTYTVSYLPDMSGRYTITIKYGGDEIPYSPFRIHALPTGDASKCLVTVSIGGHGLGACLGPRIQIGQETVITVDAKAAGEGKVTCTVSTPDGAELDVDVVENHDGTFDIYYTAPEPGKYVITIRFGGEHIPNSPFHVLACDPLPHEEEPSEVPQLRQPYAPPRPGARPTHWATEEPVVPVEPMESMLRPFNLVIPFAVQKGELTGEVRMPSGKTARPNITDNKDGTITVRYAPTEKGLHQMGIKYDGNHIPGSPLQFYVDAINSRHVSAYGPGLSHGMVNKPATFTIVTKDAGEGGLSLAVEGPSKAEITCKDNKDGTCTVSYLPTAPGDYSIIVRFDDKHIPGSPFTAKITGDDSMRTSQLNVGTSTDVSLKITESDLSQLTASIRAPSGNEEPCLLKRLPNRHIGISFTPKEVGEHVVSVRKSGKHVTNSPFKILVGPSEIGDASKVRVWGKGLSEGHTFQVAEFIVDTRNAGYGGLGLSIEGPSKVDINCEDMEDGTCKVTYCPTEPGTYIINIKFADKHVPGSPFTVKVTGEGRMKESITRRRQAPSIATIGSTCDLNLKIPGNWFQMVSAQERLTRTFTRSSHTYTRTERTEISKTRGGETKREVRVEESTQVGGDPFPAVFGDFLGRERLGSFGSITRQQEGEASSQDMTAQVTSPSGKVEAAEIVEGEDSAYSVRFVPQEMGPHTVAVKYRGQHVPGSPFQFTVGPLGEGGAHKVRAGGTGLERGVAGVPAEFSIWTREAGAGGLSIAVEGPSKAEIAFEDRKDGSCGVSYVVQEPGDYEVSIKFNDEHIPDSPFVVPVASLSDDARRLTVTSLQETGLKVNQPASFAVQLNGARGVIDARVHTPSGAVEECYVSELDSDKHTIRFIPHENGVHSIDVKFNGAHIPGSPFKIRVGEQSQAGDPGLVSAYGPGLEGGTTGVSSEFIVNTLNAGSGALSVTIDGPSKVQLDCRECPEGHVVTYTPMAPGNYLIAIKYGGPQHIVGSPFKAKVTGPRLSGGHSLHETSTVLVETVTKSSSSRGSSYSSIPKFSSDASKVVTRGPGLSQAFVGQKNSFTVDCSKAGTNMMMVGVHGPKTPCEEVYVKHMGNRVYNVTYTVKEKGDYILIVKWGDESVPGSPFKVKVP

## C[C@H](Oc1cc(-c2cnn(C3CCNCC3)c2)cnc1N)c1c(Cl)ccc(F)c1Cl [(5)-crizotinib]
[1]
  AvgP: 0.2533
  SC.Exp. 1-1: 4
  SC.Exp. 1-2: 1
  SC.Exp. 2-1: 0
  SC.Exp. 2-2: 0
  Sum (SC.Exp.): 5
[2]
  AvgP: 0.1845
  SC.Exp. 1-1: 0
  SC.Exp. 1-2: 2
  SC.Exp. 2-1: 0
  SC.Exp. 2-2: 0
  Sum (SC.Exp.): 2
[3]
  AvgP: 0
  SC.Exp. 1-1: 8
  SC.Exp. 1-2: 8
  SC.Exp. 2-1: 2
  SC.Exp. 2-2: 4
  SC.Exp. Sum: 22
[4]
  AvgP: 0
  SC.Exp. 1-1: 5
  SC.Exp. 1-2: 6
  SC.Exp. 2-1: 6
  SC.Exp. 2-2: 6
  SC.Exp. Sum: 23
[5]
  AvgP: 0
  SC.Exp. 1-1: 37
  SC.Exp. 1-2: 34
  SC.Exp. 2-1: 37
  SC.Exp. 2-2: 37
  SC.Exp. Sum: 145
[6]
  AvgP: 0.4939
  SC.Exp. 1-1: 7
  SC.Exp. 1-2: 7
  SC.Exp. 2-1: 0
  SC.Exp. 2-2: 0
  Sum (SC.Exp.): 14
[7]
  AvgP: 0
  SC.Exp. 1-1: 0
  SC.Exp. 1-2: 0
  SC.Exp. 2-1: 0
  SC.Exp. 2-2: 1
  SC.Exp. Sum: 1
[8]
  AvgP: 0.4332
  SC.Exp. 1-1: 9
  SC.Exp. 1-2: 6
  SC.Exp. 2-1: 0
  SC.Exp. 2-2: 0
  Sum (SC.Exp.): 15
[9]
  AvgP: 0.3864
  SC.Exp. 1-1: 2
  SC.Exp. 1-2: 3
  SC.Exp. 2-1: 0
  SC.Exp. 2-2: 0
  Sum (SC.Exp.): 5
[10]
  AvgP: 0
  SC.Exp. 1-1: 1
  SC.Exp. 1-2: 1
  SC.Exp. 2-1: 0
  SC.Exp. 2-2: 0
  SC.Exp. Sum: 2
[11]
  AvgP: 0
  SC.Exp. 1-1: 23
  SC.Exp. 1-2: 21
  SC.Exp. 2-1: 8
  SC.Exp. 2-2: 8
  SC.Exp. Sum: 60
